This data set has as its system collagen type I alpha I chain (COL1A1) gene, normal human dermal fibroblasts (NHDF). The data set is described as follows: Fold change in gene expression of COL1A1 in normal human dermal fibroblasts (qPCR, normalized to ACTB). Type of data set: cell-based. As to conditions: 48 hours, relative to blank control (1.0). As to the method: The normal human dermal fibroblasts (NHDF) (Biocell, Xi'an, China, Lot: Fb20081902) were incubated in medium together with or without actives for 48 hours. After incubation, the total RNA for each NHDF was extracted using RNAex Pro reagent (Accurate Biotechnology, Cat: AG21102) according to manufacturer's protocol.
The extracted RNA was quantified using Nanodrop spectrometer (Thermo Fisher Scientific, Waltham, MA, US) and reverse transcribed to generate the template cDNA using the Evo M-MLV RT Premix for qPCR (Accurate Biotechnology, Cat: AG11706) according to manufacturer's protocol. Gene expression of COL1A1 gene was analyzed by polymerase chain reaction (PCR) using SYBR® Green Premix Pro Taq HS qPCR Kit (Accurate Biotechnology, AG11701). The actin beta (ACTB) gene was selected as the housekeeping gene and all data on relative expression of the target genes was normalized to ACTB gene. The fold changes in expression were calculated relative to the blank control (medium having no active).
For orientation: Quantitative PCR measures a nucleic acid by following its amplification.

For the molecule Lysine carboxymethyl cysteinate [LCC], the “Fold change of COL1A1 expression” value is given as 1.4 fold change (5 μM of LCC (group D)), 1.5 fold change (10 μM of LCC (group G)) and 1.3 fold change (50 μM of LCC (group A)).

Consider `CCC(=O)OC/C=C(C)/C=C/C=C(C)/C=C/C1=C(C)CCCC1(C)C` [RP, Retinyl propionate], for which the “Fold change of COL1A1 expression” value runs as follows: (1 μM of RP (group B)) 1.4 fold change; (10 μM of RP (group E)) 1.5 fold change.

The values above are taken from patent US20260373038A1, “A PERSONAL CARE COMPOSITION” (Conopco, Inc., d/b/a UNILEVER, priority 2022, published 2026).
